Data taken from publication PMC10779222, “Copper(II) Complexes with 1-(Isoquinolin-3-yl)heteroalkyl-2-ones: Synthesis, Structure and Evaluation of Anticancer, Antimicrobial and Antioxidant Potential” (International Journal of Molecular Sciences, 2023).
≈ marks a conversion by molar mass, not a printed value. Where “and” joins values, the source holds several entries; their conditions need not be identical. Identical values can stand only once.

What was measured:
[1] = system: Candida parapsilosis ATCC 22019; assay: Two-fold microdilution broth method, MIC; format: cell-based; conditions: 35 °C, 24 h; for MIC: Lodderomyces parapsilosis, ATCC22019
Description: (§1) Antibacterial and antifungal activities of the free ligands L2, L3 and L4 and the corresponding copper(II) complexes C2, C3 and C4 were screened using the two-fold microdilution broth method. Minimal inhibitory concentrations (MICs) of tested compounds for the panel of reference Gram-positive bacteria, including Staphylococcus aureus ATCC 25923, Staphylococcus aureus ATCC BAA-1707, Staphylococcus epidermidis ATCC 12228, Micrococcus luteus ATCC 10240 and Bacillus cereus ATCC 10876; Gram-negative bacteria, including Salmonella Typhimurium ATCC 14028, Escherichia coli ATCC 25922, Proteus mirabilis ATCC 12453, Klebsiella pneumoniae ATCC 13883 and Pseudomonas aeruginosa ATCC 9027; and yeasts, including Candida albicans ATCC 102231, Candida parapsilosis ATCC 22019 and Candida glabrata ATCC 90030 were determined. The procedure has been described in detail before. Briefly, the solutions of tested compounds dissolved in dimethylosulfoxide (DMSO) were suspended in Mueller–Hinton broth for bacteria or Mueller–Hinton broth with 2% glucose for fungi. Then, the series of two-fold dilutions were carried out in the sterile Nunc™ MicroWell™ 96-Well Microplates (ThermoFisher Scientific Inc.), obtaining concentrations from 1000 to 7.8 mg/L in the appropriate medium. Simultaneously, the inocula of 24 h cultures of microorganisms in sterile physiological saline (0.5 McFarland standard density) were prepared and added to each well, obtaining final density of 5 × 10^5 CFU/mL for bacteria and 5 × 10^4 CFU/mL for yeasts. Proper positive (inoculum without tested compound) and negative (compound without inoculum) controls were added in each microplate. After incubation (35 °C, 24 h), the growth of microorganisms was measured spectrophotometrically at 600 nm (BioTEK ELx808, Bio-Tek Instruments, Inc., Winooski, VT, USA). MICs were marked at the lowest concentration of the compound without the growth of bacteria or fungi.

[2] = system: Candida albicans ATCC 102231; assay: Two-fold microdilution broth method, MIC; format: cell-based; conditions: 35 °C, 24 h; for MIC: Candida albicans, ATCC102231
Description: as §1

[3] = system: Candida glabrata ATCC 90030; assay: Two-fold microdilution broth method, MIC; format: cell-based; conditions: 35 °C, 24 h; for MIC: Nakaseomyces glabratus, ATCC90030
Description: as §1

[4] = system: A375, HepG2, LS-180, T98G and CCD-1059Sk cell lines; assay: MTT cytotoxicity assay, summary statements over several cell lines; format: cell-based; conditions: for IC50: Homo sapiens, all cell lines (A375, HepG2, LS-180, T98G, CCD-1059-Sk)
Description: (§2) Cytotoxic activity of the investigated compounds was evaluated against T98G (glioblastoma), HepG2 (hepatoma), LS-180 (colon cancer) and A375 (melanoma) cell lines. Human normal skin fibroblasts, CCD-1059Sk (CRL-2072), were used as reference (non-cancerous) cells. All of the cell lines were obtained from American Type Culture Collection (ATCC; Manassas, VA, USA). A375, T98G and CCD-1059Sk cells were cultured in Dulbecco’s Modified Eagle’s Medium (DMEM) (Sigma Aldrich, St. Louis, MO, USA) supplemented with 10% FBS, penicillin (100 U/mL) and streptomycin (100 μg/mL). LS-180 and HepG2 cells were cultured in Eagle’s Minimum Essential Medium supplemented with 10% FBS, penicillin (100 U/mL) and streptomycin (100 μg/mL). All of the cells were maintained at 37 °C in a humidified atmosphere of 5% CO2. The compounds were dissolved in DMSO in order to obtain stock solutions. At the day of the experiment, the suspension of cells (1 × 10^5 cells/mL) was distributed onto 96-well plates at a volume of 100 μL/well. After attachment, the cells were treated with the increased concentrations of the tested compounds in medium containing 2% FBS and incubated for 24 h. Then, the medium was removed from wells, and cells were rinsed with PBS. Afterwards, 15 μL of MTT working solution (5 mg/mL in PBS) was added to each well, and the plates were incubated for 3 h. Subsequently, 100 μL of 10% SDS solution was added to each well in order to dissolve the precipitated formazan crystals. After overnight incubation at 37 °C, the absorbance of the obtained solution was measured at λ = 570 nm using a microplate reader (Epoch, BioTek Instruments, Inc., Winooski, VT, USA). At least two independent experiments were performed in triplicate. […] IC50 values of the investigated derivatives and positive control (etoposide) were calculated using the IC50 online calculator [101].

[5] = ABTS radical scavenging assay; conditions: ±SD; 10 min, 30 °C
Description: The ABTS radical scavenging assay of samples (ligands or complexes) was performed with ascorbic acid as a positive control. Briefly, 30 μL of different concentrations of the samples, dissolved in DMSO, was mixed with 170 μL of ABTS solution (2 mM ABTS diammonium salt, 3.5 mM potassium persulfate) and completed with water to a final volume of 300 μL. ABTS solution with DMSO was used as a control. […] ABTS inhibition was calculated according to the following equation:ABTS Inhibition (%) = [(Acontrol − Asample)/Acontrol] × 100% The radical scavenging activity of the samples was shown as the IC50 value (the concentration of the analyzed samples that caused a decrease in the non-reduced form of the ABTS radical by 50%).

[6] = system: CCD-1059Sk (human normal skin fibroblasts); assay: MTT cytotoxicity assay on non-cancerous fibroblasts; format: cell-based; conditions: 24 h incubation, non-cancerous cells; for IC50: Homo sapiens, CCD-1059Sk, read-out: IC50 ± SD, CCD-1059-Sk
Description: as §2

Candida = assay: Two-fold microdilution broth method, MIC, yeasts (summary); format: cell-based; conditions: range over the three yeast strains; read-out: MIC, anti-Candida activity
Description: Antibacterial and antifungal activities of the free ligands L2, L3 and L4 and the corresponding copper(II) complexes C2, C3 and C4 were screened using the two-fold microdilution broth method. Minimal inhibitory concentrations (MICs) of tested compounds for the panel of reference Gram-positive bacteria, including Staphylococcus aureus ATCC 25923, Staphylococcus aureus ATCC BAA-1707, Staphylococcus epidermidis ATCC 12228, Micrococcus luteus ATCC 10240 and Bacillus cereus ATCC 10876; Gram-negative bacteria, including Salmonella Typhimurium ATCC 14028, Escherichia coli ATCC 25922, Proteus mirabilis ATCC 12453, Klebsiella pneumoniae ATCC 13883 and Pseudomonas aeruginosa ATCC 9027; and yeasts, including Candida albicans ATCC 102231, Candida parapsilosis ATCC 22019 and Candida glabrata ATCC 90030 were determined. The procedure has been described in detail before. Briefly, the solutions of tested compounds dissolved in dimethylosulfoxide (DMSO) were suspended in Mueller–Hinton broth for bacteria or Mueller–Hinton broth with 2% glucose for fungi. […] After incubation (35 °C, 24 h), the growth of microorganisms was measured spectrophotometrically at 600 nm (BioTEK ELx808, Bio-Tek Instruments, Inc., Winooski, VT, USA). […]

LS-180 (colon cancer) = assay: MTT cytotoxicity assay on LS-180 cells; format: cell-based, human; conditions: for IC50: Homo sapiens, LS180, 24 h incubation, read-out: IC50 ± SD, LS180; for IC50 ± SD, LS180: 24 h incubation
Description: as §2

A375 (melanoma) = assay: MTT cytotoxicity assay on A375 cells; format: cell-based, human; conditions: for IC50: Homo sapiens, A-375, 24 h incubation, read-out: IC50 ± SD, A375; for IC50 ± SD, A375: 24 h incubation
Description: as §2

T98G (glioblastoma) = assay: MTT cytotoxicity assay on T98G cells; format: cell-based; conditions: MTT, 24 h incubation; for IC50: Homo sapiens, T98G, read-out: IC50 ± SD, T98G
Description: as §2

HepG2 (hepatoma) = assay: MTT cytotoxicity assay on HepG2 cells; format: cell-based, human; conditions: MTT, 24 h incubation; for IC50: Homo sapiens, HepG2, read-out: IC50 ± SD, HepG2
Description: as §2

[7] = DPPH radical scavenging assay; conditions: ±SD; 30 min, room temperature
Description: The DPPH radical scavenging assay of samples was performed with ascorbic acid as a positive control. Briefly, 100 μL of different concentrations of the complexes, dissolved in DMSO, was mixed with 100 μL of 0.06 mM DPPH methanolic solution and incubated at room temperature in the dark for 30 min. The change in absorbance at λ = 517 nm was analyzed with the use of a 96-well microplate reader (Epoch, BioTek System, Winooski, VT, USA). The control was composed of DPPH and DMSO. DPPH inhibition was calculated according to the following equation:DPPH Inhibition (%) = [(Acontrol − Asample)/Acontrol] × 100% The radical scavenging activity of the samples was shown as the IC50 value (the concentration of the analyzed samples that caused a decrease in the non-reduced form of the DPPH radical by 50%).

MIC [1]	MIC [2]	MIC [3]	Compound	IC50 [4]	IC50 ABTS [5]	IC50 [6]	IC50 (LS-180 (colon cancer))	IC50 (A375 (melanoma))	IC50 (T98G (glioblastoma))	IC50 (HepG2 (hepatoma))	IC50 ± SD, CCD-1059-Sk [6]	IC50 DPPH [7]	IC50 ± SD, LS180 (LS-180 (colon cancer))	IC50 ± SD, A375 (A375 (melanoma))	IC50 ± SD, T98G (T98G (glioblastoma))	further results
125 µg/mL (≈ 550 µM)	250 µg/mL (≈ 1100 µM)	250 µg/mL (≈ 1100 µM)	CN1CCN(c2cc3ccccc3cn2)C1=O [L3, 1-(isoquinolin-3-yl)-3-methylimidazolidin-2-one]	> 200 µg/mL	96.76 µg/mL and 96.67 ± 2.84 µg/mL	> 200 µg/mL	> 200 µg/mL	> 200 µg/mL	> 200 µg/mL	> 200 µg/mL	–	–	–	–	–	MIC (Candida): 125 to 250 µg/mL (≈ 550 to 1100 µM)
–	–	–	CCN1CCN(c2cc3ccccc3cn2)C1=O.[Cl][Cu][Cl] [C4, Dichloro[1-ethyl-3-(isoquinolin-3-yl)imidazolidin-2-one]copper(II)]	–	72.5 ± 0.97 µg/mL	–	–	–	–	–	18.25 ± 1.37 µg/mL	26.46 ± 1.04 µg/mL	5.92 ± 0.54 µg/mL	37.80 ± 3.11 µg/mL	9.27 ± 0.11 µg/mL	MIC, C. parapsilosis ATCC 22019 [1]: >1000 µg/mL; MIC, C. albicans ATCC 102231 [2]: 500 µg/mL; MIC, C. glabrata ATCC 90030 [3]: >1000 µg/mL; IC50, HepG2, LS180 and T98G ([4]; range over HepG2, LS180 and T98G): 5.92 to 9.27 µg/mL
–	–	–	O=C1CCN1c1cc2ccccc2cn1.O=C1CCN1c1cc2ccccc2cn1.[Cl][Cu][Cl] [C1, Dichloro{bis[1-(Isoquinolin-3-yl)azetidin-2-one]}copper(II)]	–	112.67 ± 1.8 µg/mL	–	–	–	–	–	18.83 ± 0.91 µg/mL	37.45 ± 0.66 µg/mL	11.46 ± 0.69 µg/mL	37.97 ± 3.01 µg/mL	8.25 ± 0.36 µg/mL	IC50, HepG2 and T98G ([4]; range over HepG2 and T98G): 8.25 to 14.89 µg/mL; IC50 ± SD, HepG2 (HepG2 (hepatoma)): 14.89 ± 0.56 µg/mL
–	–	–	CN1CCN(c2cc3ccccc3cn2)C1=O.[Cl][Cu][Cl] [C3, Dichloro[1-(Isoquinolin-3-yl)-3-methylimidazolidin-2-one]copper(II)]	–	106.19 ± 2.55 µg/mL	–	–	–	–	–	25.17 ± 0.85 µg/mL	380.65 ± 2.74 µg/mL	7.09 ± 0.53 µg/mL	22.78 ± 1.14 µg/mL	10.55 ± 0.74 µg/mL	MIC, C. parapsilosis ATCC 22019 [1]: 1000 µg/mL; MIC, C. albicans ATCC 102231 [2]: 1000 µg/mL; MIC, C. glabrata ATCC 90030 [3]: 1000 µg/mL; IC50 ± SD, HepG2 (HepG2 (hepatoma)): 12.00 ± 0.36 µg/mL
–	–	–	O=C1CCN1c1cc2ccccc2cn1 [L1, 1-(isoquinolin-3-yl)azetidin-2-one]	> 200 µg/mL	183.21 ± 2.45 µg/mL (≈ 924 µM)	> 200 µg/mL	> 200 µg/mL	> 200 µg/mL	> 200 µg/mL	> 200 µg/mL	–	–	–	–	–	–
–	–	–	COc1cc([C@@H]2c3cc4c(cc3[C@@H](O[C@@H]3O[C@@H]5CO[C@@H](C)O[C@H]5[C@H](O)[C@H]3O)[C@H]3COC(=O)[C@H]23)OCO4)cc(OC)c1O [Etoposide, etoposide, reference compound]	–	–	83.5 ± 3.19 µg/mL (≈ 142 µM)	> 100 µg/mL	10.2 ± 0.83 µg/mL (≈ 17.3 µM)	> 100 µg/mL	43.2 ± 2.75 µg/mL (≈ 73.4 µM)	–	–	–	–	–	–
> 1000 µg/mL	1000 µg/mL (≈ 4140 µM)	1000 µg/mL (≈ 4140 µM)	CCN1CCN(c2cc3ccccc3cn2)C1=O [L4, 1-ethyl-3-(isoquinolin-3-yl)imidazolidin-2-one]	> 200 µg/mL	108.59 ± 1.51 µg/mL (≈ 450 µM)	> 200 µg/mL	> 200 µg/mL	> 200 µg/mL	> 200 µg/mL	> 200 µg/mL	–	–	–	–	–	melting point: 151 to 153 °C
–	–	–	O=C1O[C@H]([C@@H](O)CO)C(O)=C1O [Ascorbic acid, reference compound]	–	20.15 ± 0.33 µg/mL (≈ 114 µM)	–	–	–	–	–	–	11.65 ± 0.54 µg/mL (≈ 66.1 µM)	–	–	–	–

Compound	MIC [1]	MIC [2]	MIC [3]	IC50 [4]	IC50 ABTS [5]	IC50 [6]	IC50 (LS-180 (colon cancer))	IC50 (A375 (melanoma))	IC50 (T98G (glioblastoma))	IC50 (HepG2 (hepatoma))	IC50 ± SD, CCD-1059-Sk [6]	IC50 DPPH [7]	IC50 ± SD, LS180 (LS-180 (colon cancer))	IC50 ± SD, A375 (A375 (melanoma))	IC50 ± SD, T98G (T98G (glioblastoma))	further results
O=C1NCCN1c1cc2ccccc2cn1 [L2, 1-(isoquinolin-3-yl)imidazolidin-2-one]	1000 µg/mL (≈ 4690 µM)	500 µg/mL (≈ 2340 µM)	> 1000 µg/mL	> 200 µg/mL	82.08 ± 2.77 µg/mL (≈ 385 µM)	> 200 µg/mL	> 200 µg/mL	> 200 µg/mL	> 200 µg/mL	> 200 µg/mL	–	–	–	–	–	melting point: 234 to 236 °C
